The experiment has as its target Transient receptor potential cation channel subfamily V member 1 (Homo sapiens, UniProt Q8NER1). As to the kind of experiment: Inhibition of calcium influx evoked by capsaicin in human TRPV1 expressing cells by fluorescence assay. Type of experiment: functional.

Chain of Transient receptor potential cation channel subfamily V member 1 (Q8NER1 whole entry): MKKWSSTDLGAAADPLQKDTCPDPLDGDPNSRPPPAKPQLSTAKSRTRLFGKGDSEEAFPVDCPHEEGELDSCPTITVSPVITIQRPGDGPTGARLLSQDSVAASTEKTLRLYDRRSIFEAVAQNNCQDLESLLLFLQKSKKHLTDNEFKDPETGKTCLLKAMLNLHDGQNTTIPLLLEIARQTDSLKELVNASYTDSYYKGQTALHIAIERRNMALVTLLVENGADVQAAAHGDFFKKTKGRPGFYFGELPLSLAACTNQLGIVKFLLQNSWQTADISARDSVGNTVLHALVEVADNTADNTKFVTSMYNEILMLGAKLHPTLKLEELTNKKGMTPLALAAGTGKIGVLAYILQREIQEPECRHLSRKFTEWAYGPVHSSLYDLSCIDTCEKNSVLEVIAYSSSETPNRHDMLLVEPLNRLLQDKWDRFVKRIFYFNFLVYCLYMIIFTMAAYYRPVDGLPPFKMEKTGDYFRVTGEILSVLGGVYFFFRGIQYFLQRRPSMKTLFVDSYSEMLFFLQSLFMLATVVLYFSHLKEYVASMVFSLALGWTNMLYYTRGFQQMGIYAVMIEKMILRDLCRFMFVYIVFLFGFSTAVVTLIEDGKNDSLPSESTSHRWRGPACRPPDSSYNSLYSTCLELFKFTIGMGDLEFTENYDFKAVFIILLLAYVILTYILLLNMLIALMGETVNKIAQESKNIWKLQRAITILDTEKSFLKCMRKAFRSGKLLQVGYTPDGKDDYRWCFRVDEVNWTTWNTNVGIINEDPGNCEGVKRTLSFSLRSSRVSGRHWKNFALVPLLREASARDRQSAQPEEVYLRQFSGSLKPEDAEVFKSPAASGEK

For the molecule `COc1cc(Cl)cc(-c2cc3c(O)nc(C)nc3cc2C(C)C)c1`, the IC50 was 100 nM.

In general, IC50 refers to the midpoint of a concentration-inhibition curve.

For the origin of these results see ChEMBL document CHEMBL1147725, “Identification and biological characterization of 6-aryl-7-isopropylquinazolinones as novel TRPV1 antagonists that are effective in models of chronic pain” (J Med Chem, 2006).
